PMC12469503, “Exploring the Antimicrobial and Antiviral Properties of Cryptic Peptides from Human Fibrinogen” (International Journal of Molecular Sciences, 2025)
Like-named read-outs stand apart in the source and are kept apart here. Ends that are not written are not given here.

What was measured:
[1] = tested on: Pseudomonas aeruginosa PAO1; conditions: for MIC: Table 2, Pseudomonas aeruginosa PAO1
[2] = tested on: Pseudomonas aeruginosa PAO1
[3] = tested on: Staphylococcus aureus ATCC 6538P; conditions: for MBC/MIC: Table 2, Staphylococcus aureus ATCC 6538P; for MBC: ATCC 6538
[4] = tested on: Salmonella typhimurium ATCC 14028; assay: MIC, broth microdilution; type: cell-based; conditions: Table 1; for MIC S. typ.: broth microdilution, Nutrient Broth 0.5×, overnight 37 °C, minimum of three independent experiments
Description: MIC values were determined on Gram-positive and Gram-negative bacteria by the broth microdilution method for antimicrobial peptides previously described [33, 89] with minor modifications.
Bacterial strains were grown in Luria-Bertani (LB) medium overnight at 37 °C and then diluted in Nutrient Broth at a final concentration of ~5 × 10^5 CFU/mL per well. Twofold serial dilutions of peptides were carried out in the test wells to obtain concentrations ranging from 50 μM to 0.05 μM. Plates were incubated overnight at 37 °C.
MIC value was defined as the lowest concentration at which growth was inhibited. Three independent experiments were performed for each MIC value.

[5] = tested on: Escherichia coli ATCC 25922
[6] = tested on: Klebsiella pneumonia ATCC 700603; conditions: for MIC K. pne.: ATCC 700603
[7] = tested on: Acinetobacter baumanii ATCC 17878
[8] = tested on: Salmonella enteriditis 706 RIVM
[9] = tested on: Pseudomonas aeruginosa PA14
[10] = tested on: Pseudomonas aeruginosa RP73 (clinical isolate)
[11] = tested on: Staphylococcus aureus ATCC 6538P; conditions: ATCC 6538
[12] = tested on: Enterococcus faecalis ATCC 29212
[13] = type: physicochemical
Text: The six peptides were produced in the recombinant form by using a previously described strategy that exploit the frog protein onconase (ONC) as a carrier to drive the peptide to inclusion bodies. The fusion proteins were expressed in Escherichia coli strain BL21DE3, using the pET22b(+) vector and named: ONC-DCless-H6-(P)FIBα-GVV27, ONC-DCless-H6-(P)FIBα-SFR22, ONC-DCless-H6-(P)FIBβ-GVV28, ONC-DCless-H6-(P)FIBβ-NWK23, ONC-DCless-H6-(P)FIBγ-GII30, ONC-DCless-H6-(P)FIBγ-TWK25 (nucleotide and amino acid sequences are reported in Supplementary Figure S1). […] Peptides were released by hydrolysis of an acidic labile “Asp-Pro” sequence leading to recombinant peptides endowed with an additional Pro residue at the N-terminus. Thus, the recombinant forms of these peptides are herein named (P)FIBα-GVV27, (P)FIBα-SFR22, (P)FIBβ-GVV28, (P)FIBβ-NWK23, (P)FIBγ-GII30, (P)FIBγ-TWK25. Hydrolysis efficiencies of 95% were estimated for all the recombinant proteins (Supplementary Figure S3). To purify the recombinant peptides from the hydrolysis mixtures, the carrier and the uncleaved fusion protein were selectively precipitated by increasing the pH to 7 exploiting the fact that ONC is insoluble at pH higher than 5, whereas most AMPs are soluble also at neutral pH. […] Therefore, purification of (P)FIBα-SFR22, (P)FIBα-GVV27, (P)FIBβ-NWK23 and (P)FIBγ-TWK25 was first performed by selective precipitation, to remove the carrier and the uncleaved fusion protein, followed by Reverse Phase High-Performance Liquid Chromatography (RP-HPLC) on a C18 column, whereas purification of (P)FIBβ-GVV28 and (P)FIBγ-GII30 was performed directly by RP-HPLC omitting the selective precipitation step. Final yields of all recombinant peptides ranged from approximately 6 to 12 mg per liter of LB culture. Peptide purity, as determined by RP-HPLC, typically varied between 95% and 99% (Supplementary Figure S4).
Peptides (P)FIBα-GVV27, (P)FIBα-SFR22, (P)FIBβ-NWK23 and (P)FIBγ-TWK25 were separated from the carrier and the uncleaved fusion proteins as previously described. The hydrolysis mixture was neutralized to pH 7–7.2 by adding 1 M NH3 and incubated for 1 h at 25 °C under nitrogen atmosphere in a water bath. […] Supernatant and insoluble fraction were analyzed by SDS-PAGE. Concentration of the peptide into the soluble fraction was determined by spectrophotometric analyses using extinction coefficients (Supplementary Table S1) calculated by the ProtParam tool. After the selective precipitation step, purification of the peptide was performed by RP-HPLC. The linear gradients used are listed in Supplementary Table S2. Purification of (P)FIBβ-GVV28 and (P)FIBγ-GII30 was performed directly by RP-HPLC, omitting the selective precipitation step. Purified peptides were lyophilized and dissolved in deionized water. Samples were stored at −80 °C under nitrogen atmosphere. Purity of peptides was evaluated by RP-HPLC on Europa Protein 300 C18 column (5 μm, 25 × 1) using the linear gradients listed in Supplementary Table S2. The identity of the peptides was confirmed by mass spectrometry.

HCoV-229E = conditions: Vero cells; for antiviral activity against HCoV-229E: co-treatment assay, from 50 μM peptide
[14] = tested on: P. aeruginosa PAO1 biofilm; assay: Antibiofilm attachment assay, confocal microscopy; conditions: peptide 20 µM added with bacteria, stained after 4 h, Live/Dead BacLight, three independent experiments, t-test vs control
[15] = tested on: P. aeruginosa PAO1 biofilm; assay: Antibiofilm detachment assay, confocal microscopy; conditions: peptide 20 µM on 24 h pre-formed biofilm, further 24 h, Live/Dead BacLight, three independent experiments
[16] = Table 2, Pseudomonas aeruginosa PAO1
[17] = Table 1, broth microdilution, Nutrient Broth 0.5×, overnight 37 °C, minimum of three independent experiments
[18] = Table 1, broth microdilution, Nutrient Broth 0.5×, ~5 × 10^5 CFU/mL, overnight 37 °C, minimum of three independent experiments
[19] = Table 1, control antibiotic, twofold dilutions from 64 µg/mL

| Molecule | MBC/MIC [2, 16] | MBC/MIC [3] | MIC S. typ. [4] [µM] | MIC E. coli ([5]; ATCC 25922) [µM] | MIC K. pne. [6] [µM] | MIC PAO1 [1] [µM] | MIC PA14 ([9]; PA14) [µM] | MIC RP73 ([10]; RP73 (clinical isolate)) [µM] | MIC S. aur. [11] [µM] | MIC E. fae. ([12]; ATCC 29212) [µM] | MIC A. bau. [7, 17] [µM] | MIC S. ent. [8] [µM] | MIC PA14 [9, 17] [µM] | MIC E. fae. [12, 17] [µM] | other results |
| --- | --- | --- | --- | --- | --- | --- | --- | --- | --- | --- | --- | --- | --- | --- | --- |
| CC[C@H](C)[C@H](NC(=O)[C@H](CCCCN)NC(=O)[C@H](CCC(=O)O)NC(=O)[C@H](CCCCN)NC(=O)[C@H](CO)NC(=O)[C@H](CCCCN)NC(=O)[C@H](CCCNC(=N)N)NC(=O)[C@H](Cc1ccccc1)NC(=O)[C@H](Cc1ccccc1)NC(=O)[C@H](CC(=O)O)NC(=O)CNC(=O)[C@H](CC(C)C)NC(=O)[C@@H](N)CC(C)C)C(=O)NCC(=O)N[C@@H](CCCCN)C(=O)N[C@@H](CCC(=O)O)C(=O)N[C@@H](Cc1ccccc1)C(=O)N[C@@H](CCCCN)C(=O)N[C@@H](CCCNC(=N)N)C(=O)N[C@H](C(=O)N[C@H](C(=O)N[C@@H](CCC(N)=O)C(=O)N[C@@H](CCCNC(=N)N)C(=O)N[C@H](C(=O)N[C@@H](CCCCN)C(=O)N[C@@H](CC(=O)O)C(=O)N[C@@H](Cc1ccccc1)C(=O)N[C@@H](CC(C)C)C(=O)N[C@@H](CCCNC(=N)N)C(=O)N[C@@H](CC(N)=O)C(=O)N[C@@H](CC(C)C)C(=O)N[C@H](C(=O)N1CCC[C@H]1C(=O)N[C@@H](CCCNC(=N)N)C(=O)N[C@H](C(=O)N[C@@H](CCC(=O)O)C(=O)N[C@@H](CO)C(=O)O)[C@@H](C)O)C(C)C)[C@@H](C)CC)C(C)C)[C@@H](C)CC [LL37, reference compound] | – | – | – | – | – | – | – | – | – | – | – | – | – | – | MIC ([1]; minimum of three independent experiments): 1.56 µM; MBC ([2]; Table 2, Pseudomonas aeruginosa PAO1, […], subculture on LB agar): 1.56 µM |
| NC[C@H]1O[C@H](O[C@H]2[C@H](O)[C@@H](O[C@H]3O[C@H](CO)[C@@H](O)[C@H](N)[C@H]3O)[C@H](N)C[C@@H]2N)[C@H](N)C[C@@H]1O [Tobramycin] | 2 | 2 | – | – | – | – | – | – | – | – | – | – | – | – | – |
| Colistin [reference compound] | 1 | – | – | – | – | – | – | – | – | – | – | – | – | – | MIC ([1]; antibiotics): 0.5 µg/mL; MBC ([2]; Table 2, Pseudomonas aeruginosa PAO1, antibiotics): 0.5 µg/mL |
| GVVWMNWKGSWYSMRKMSMKIRPFFPQQ [FIBβ-GVV28] | – | – | 12.5 | 6.25 | 25 | 6.25 | 6.25 | 6.25 | 3.12 | 6.25 | – | – | – | – | MIC A. bau. ([7]; ATCC 17878): 6.25 µM; MIC S. ent. [8, 17]: 12.5 µM |
| GVVWVSFRGADYSLRAVRMKIRPLVTQ [FIBα-GVV27] | – | – | 6.25 | 12.5 | 25 | 6.25 | – | 3.12 | 6.25 | – | 6.25 | 12.5 | 6.25 | 6.25 | – |
| H-PGIIWATWKTRWYSMKKTTMKIIPFNRLTIG [(P)FIBγ-GII30] | 1 | 1 | 6.25 | 12.5 | 25 | 12.5 | – | 3.12 | 6.25 | – | 6.25 | 12.5 | 6.25 | 6.25 | solubility / aggregation at pH 7 [13]: particularly prone to aggregation and precipitation; MBC ([2]; PAO1): 12.5 µM; MBC [3]: 6.25 µM; antiviral activity against HCoV-229E (HCoV-229E): strong antiviral activity; IC50 (HCoV-229E; read-out: IC50 against HCoV-229E, virus pre-treatment assay (virus incubated with peptide at 37 °C before infection)): 1300 nM; fluorescence signal of SYTO 9 (live cells), attachment assay [14]: significantly reduced |
| H-PGVVWVSFRGADYSLRAVRMKIRPLVTQ [(P)FIBα-GVV27] | 1 | 1 | 6.25 | 12.5 | 50 | 6.25 | – | 3.12 | 6.25 | – | 6.25 | 12.5 | 6.25 | 6.25 | solubility / aggregation at pH 7 [13]: soluble at pH 7; MBC ([2]; PAO1): 6.25 µM; MBC [3]: 6.25 µM; antiviral activity against HCoV-229E (HCoV-229E): strong antiviral activity; fluorescence signal of SYTO 9 (live cells), attachment assay [14]: significantly reduced; SYTO 9 / PI signal, detachment assay [15]: reduction of the SYTO 9 signal coupled with an increase of the PI signal |
| H-PNWKGSWYSMRKMSMKIRPFFPQQ [(P)FIBβ-NWK23] | 1 | 1 | 6.25 | – | 25 | 6.25 | 3.12 | 3.12 | 3.12 | – | 6.25 | 12.5 | – | 6.25 | solubility / aggregation at pH 7 [13]: soluble at pH 7; MIC E. coli [5, 18]: 6.25 µM; MBC ([2]; PAO1): 6.25 µM; MBC [3]: 3.12 µM; antiviral activity against HCoV-229E (HCoV-229E): absence of efficacy; fluorescence signal of SYTO 9 (live cells), attachment assay [14]: lower, not significant reduction |
| NWKGSWYSMRKMSMKIRPFFPQQ [FIBβ-NWK23] | – | – | 12.5 | 6.25 | 25 | 6.25 | 3.12 | 6.25 | 3.12 | 6.25 | – | – | – | – | MIC A. bau. ([7]; ATCC 17878): 6.25 µM; MIC S. ent. [8, 17]: 12.5 µM |
| Polymyxin B [reference compound] | – | – | – | – | – | – | – | – | – | – | – | – | – | – | MIC S. typ. (antibiotics) ([4]; control antibiotic, twofold dilutions from 64 µg/mL): 0.12 µg/mL; MIC E. coli (antibiotics) [5, 19]: 0.5 µg/mL; MIC K. pne. (antibiotics) [6, 19]: 0.5 µg/mL; MIC A. bau. (antibiotics) [7, 19]: 0.5 µg/mL; MIC S. ent. (antibiotics) [8, 19]: 0.5 µg/mL; MIC PAO1 (antibiotics) [1, 19]: 0.25 µg/mL; MIC PA14 (antibiotics) [9, 19]: 0.25 µg/mL; MIC RP73 (antibiotics) [10, 19]: 0.12 µg/mL |
| SFRGADYSLRAVRMKIRPLVTQ [FIBα-SFR22] | – | – | 50 | 25 | >50 | 12.5 | 12.5 | 12.5 | 12.5 | 6.25 | – | 50 | – | – | MIC A. bau. ([7]; ATCC 17878): 25 µM |
| TWKTRWYSMKKTTMKIIPFNRLTIG [FIBγ-TWK25] | – | – | 3.12 | – | 6.25 | 3.12 | – | – | 1.56 | 6.25 | 3.12 | 6.25 | 3.12 | – | MIC E. coli [5, 18]: 3.12 µM; MIC RP73 [10, 17]: 3.12 µM |
